In paper PMC9525908, “α-Crystallin chaperone mimetic drugs inhibit lens γ-crystallin aggregation: Potential role for cataract prevention” (The Journal of Biological Chemistry, 2022):
Changes are numbered by the printed parent chain.

Tests used:
OPJ-MγS = target: T1, OPJ-MγS (Mus musculus, UniProt O35486, F10S); experiment: Thermal unfolding (Tm), OPJ-MγS; type: biochemical; details: 10 μM protein, 100 μM drug; for Tm (°C) OPJ-MGS N-ter: Con 48; for Tm (°C) OPJ-MGS C-ter: Con 63
T1 construct: made in house; host or cells: E. coli BL21(DE3) pLysS, pET17b vector
T1 sequence (O35486 1-178 F10S): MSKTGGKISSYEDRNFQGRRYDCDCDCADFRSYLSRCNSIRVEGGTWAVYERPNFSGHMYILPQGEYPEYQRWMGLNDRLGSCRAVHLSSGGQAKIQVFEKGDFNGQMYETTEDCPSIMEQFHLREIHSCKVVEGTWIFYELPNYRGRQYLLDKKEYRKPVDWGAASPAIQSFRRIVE
Experimental: (§1) Thermal denaturation study was monitored using fluorescence spectroscopy. Protein solutions (10 μM) in the presence and absence of drugs or bis-ANS (100 μM) were heated continuously from 30 to 95 °C, and the fluorescence data were collected every 5 °C after 1 min equilibration at the given temperature. Unfolding data were fit to Greene and Pace’s two-state model ([82]) using GraphPad Prism software (GraphPad Software, Inc).

WT-MγS = target: T2, WT-MγS (Mus musculus, UniProt O35486); experiment: Thermal unfolding (Tm), WT-MγS; type: biochemical; details: 10 μM protein, 100 μM drug; Con 70
T2 construct: made in house; host or cells: E. coli BL21(DE3) pLysS, pET17b vector
T2 sequence (O35486 1-178): T1 sequence (O35486 1-178 F10S) with S10F
Experimental: as §1

MγS = target: T3, MγS (Mus musculus, UniProt O35486); experiment: Steady-state tryptophan fluorescence quenching, MγS; type: binding
T3 construct: made in house; host or cells: E. coli BL21(DE3) pLysS, pET17b vector
T3 sequence (O35486 1-178): T1 sequence (O35486 1-178 F10S) with S10F
Experimental: (§2) Tryptophan fluorescence can be used for studying conformational changes resulting from protein–drug interactions ([44]). Fluorescence quenching of aromatic fluorophores in HγD and MγS by drugs C and G at three different temperatures (25, 30, and 37 °C) was studied in the presence of varying concentrations of drug C and G (0–250 μM). As shown in Figs. S5A and S6A, both HγD and MγS have a strong emission peak at 330 nm when excited at 295 nm. In both cases, quenching occurs with gradual addition of C and G at all three temperatures. Overall, quenching of Trp fluorescence emission is at highest at 25 °C (Figs. S5A and S6A) followed by 30 °C and lowest at 37 °C. […] The slope of plot Fo/F versus [Q] gives Ksv (Figs. S5B and S6B), whereas Kb is obtained from intercept of plot log (Fo/F − 1) versus log[Q] (Figs. S5C and S6C). […] For drug M, Kb values are of the order 10^2 M^−1 only. Fluorescence quenching can be either because of random collision between the molecules (dynamic interaction) or because of actual affinity between a protein pocket and drug (static interaction). Dynamic interactions are weaker and nonspecific in nature, whereas static interactions are stronger and more specific ([47]). For more information on the type of interaction, Kq was calculated and compared with the standard value of 2 × 10^10 M^−1s^−1, which is the maximum scatter collision quenching constant of various quenchers with biopolymers ([48]). […] Furthermore, the differential response of Ksv toward temperature change also clarifies the type of quenching. In static quenching, Ksv decreases with an increase in temperature because of the formation of complex with protein, which undergoes dissociation on increasing temperature.
(§3) To gauge the strength of the major forces involved in drug–protein complex formation, change in free energy was calculated using Gibbs–Helmholtz equation (Equation 3).(3) ΔG=-RTlnKb ([50]) where, R is gas constant and its value is […], T is absolute temperature (Kelvin) and Kb is binding constant whose value is already calculated using Equation 2. […] Free energy changes are negative at all three temperatures, being maximal at 25 °C. For C, G, and M interaction with HγD, ΔG values were −6.4, −7.9, and −1.9 kcal/mol (at 25 °C), that is, similar to those obtained by molecular docking as described later. These values also reflect the fact that drug M had the least protective effect on unfolding or aggregation of various γ-crystallins (Figs. 2 and S4).
(§4) All the steady-state fluorescence measurements were recorded on Fluoromax Spectrofluorometer (Horiba Scientific). For fluorescence quenching measurements, 10 μM of both HγD and MγS crystallins were titrated with varying concentrations of drugs C, G, and M (0–250 μM) at 25, 30, and 37 °C. These samples were excited at 295 nm, and the fluorescence emission was collected from 310 to 410 nm.

HγD = target: T4, HγD (Homo sapiens, UniProt P07320); experiment: Steady-state tryptophan fluorescence quenching, HγD; type: binding
T4 construct: made in house; host or cells: E. coli BL21(DE3) pLysS, pET3d vector
T4 sequence (P07320 1-174): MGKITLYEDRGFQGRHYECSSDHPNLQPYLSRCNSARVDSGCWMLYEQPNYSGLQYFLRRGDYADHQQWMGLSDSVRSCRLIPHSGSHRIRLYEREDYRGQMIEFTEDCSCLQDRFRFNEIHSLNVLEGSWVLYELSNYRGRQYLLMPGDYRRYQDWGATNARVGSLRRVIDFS
Experimental: as §2, §3, §4

Row | SMILES | Tm (°C) OPJ-MGS N-ter (OPJ-MγS) | Tm (°C) OPJ-MGS C-ter (OPJ-MγS) | Tm (°C) WT-MGS (WT-MγS) | KSV (MγS; 25 °C) | Kq (MγS; 25 °C) | KSV (MγS; 30 °C) | Kq (MγS; 30 °C) | ΔG (MγS; 30 °C) | KSV (MγS; 37 °C) | Kq (MγS; 37 °C) | ΔG (MγS; 37 °C) | KSV (HγD; 25 °C) | Kq (HγD; 25 °C) | ΔG (HγD; 25 °C) | KSV (HγD; 30 °C) | Kq (HγD; 30 °C) | ΔG (HγD; 30 °C) | KSV (HγD; 37 °C) | ΔG (HγD; 37 °C) | ΔG (HγD; at 25 °C) | further results
1 | CC(C)=CCC[C@]1(C)C=Cc2c(O)c3c(c(CC=C(C)C)c2O1)O[C@]12C(=C[C@@H]4C[C@H]1C(C)(C)O[C@@]2(C/C=C(/C)C(=O)O)C4=O)C3=O [drug G, Gambogic acid] | 50 °C | 70 °C | 73 °C | 7.283 M^−1 ×10^3 | 1.37 M^−1 s^−1 ×10^12 | 8.034 M^−1 ×10^3 | 1.4 M^−1 s^−1 ×10^12 | −5.6 kcalM^−1 | 4.905 M^−1 ×10^3 | 0.86 M^−1 s^−1 ×10^12 | −6.5 kcalM^−1 | 10.252 M^−1 ×10^3 | 1.79 M^−1 s^−1 ×10^12 | −7.9 kcalM^−1 | 8.440 M^−1 ×10^3 | 1.47 M^−1 s^−1 ×10^12 | −7.7 kcalM^−1 | 7.880 M^−1 ×10^3 | −7.2 kcalM^−1 | -7.9 kcal/mol | Kq (HγD; 37 °C): 1.38 M^−1 s^−1 ×10^12
2 | O=C(O)CCCCCCCCCCCC[C@@H]1C=CCC1 [drug M, Chaulmoogric acid] | 48 °C | 63 °C | 68 °C | 0.793 M^−1 ×10^3 | 0.14 M^−1 s^−1 ×10^12 | 0.733 M^−1 ×10^3 | 0.13 M^−1 s^−1 ×10^12 | −2.6 kcalM^−1 | 0.491 M^−1 ×10^3 | – | −2.2 kcalM^−1 | 0.288 M^−1 ×10^3 | 0.051 M^−1 s^−1 ×10^12 | −1.9 kcalM^−1 | 0.507 M^−1 ×10^3 | 0.08 M^−1 s^−1 ×10^12 | −2.5 kcalM^−1 | 0.680 M^−1 ×10^3 | −2.6 kcalM^−1 | -1.9 kcal/mol | ΔG (MγS; 25 °C): −2.7 kcalM^−1
3 | Cc1cc(C(C#N)c2ccc(Cl)cc2)c(Cl)cc1NC(=O)c1cc(I)cc(I)c1O (stereo not drawn) [drug C, Closantel] | 50 °C | 69 °C | 72 °C | 4.828 M^−1 ×10^3 | 0.847 M^−1 s^−1 ×10^12 | 4.249 M^−1 ×10^3 | 0.745 M^−1 s^−1 ×10^12 | −6.2 kcalM^−1 | 2.988 M^−1 ×10^3 | 0.524 M^−1 s^−1 ×10^12 | −4.1 kcalM^−1 | 4.215 M^−1 ×10^3 | 0.739 M^−1 s^−1 ×10^12 | −6.4 kcalM^−1 | 4.197 M^−1 ×10^3 | 0.736 M^−1 s^−1 ×10^12 | −6.2 kcalM^−1 | 4.107 M^−1 ×10^3 | −5.9 kcalM^−1 | -6.4 kcal/mol | ΔG (MγS; 25 °C): −7.0 kcalM^−1; Kq (HγD; 37 °C): 0.72 M^−1 s^−1 ×10^12
